Assay results published in US10858360B2, “Tricyclic gyrase inhibitors” (priority 2011, dated 2020).
Converted amounts (≈) assume the structure as drawn.

Tests used:
[1] = test system: E. coli ATCC 25922; assay: MIC, E. coli ATCC 25922; type: cell-based; conditions: Alamar Blue read after overnight incubation at 35° C.; for MIC: Escherichia coli, ATCC25922, E. coli; for MIC Ec: E. coli
[2] = test system: S. aureus ATCC 13709; assay: MIC, S. aureus ATCC 13709 (Alamar Blue broth microdilution); type: cell-based; conditions: Alamar Blue read after overnight incubation at 35° C.; for MIC: Staphylococcus aureus, ATCC13709, S. aureus; for MIC Sa: S. aureus

CNc1cc(F)cc2c1[nH]c1nc(Oc3ccc4c(c3)C(=O)NC4)nc(N3C[C@H](N)C4(CC4)C3)c12 [4.265]
MIC [1]: 4 µg/mL (≈ 8.45 µM)
MIC [2]: ≤ 0.5 µg/mL

CNc1cc(F)cc2c1[nH]c1nc(Oc3cnc(SC)nc3)nc(N3CC4CCC(N)C4C3)c12 (centres unmarked) [4.200]
MIC Ec [1]: ≤0.5 µg/mL
MIC Sa [2]: ≤0.5 µg/mL

CNc1cccc2c1[nH]c1nc(Oc3cnc(C)nc3)nc(Oc3cnc(C)nc3)c12 [3.38]
MIC [1]: > 32 µg/mL
MIC [2]: 1 µg/mL (≈ 2.41 µM)

CNc1cc(F)cc2c1[nH]c1nc(Oc3cnc(C)nc3)nc(N3CC(NC(=O)C(C)N)C4(CC4)C3)c12 (centres unmarked) [4.142]
MIC Ec [1]: 1 µg/mL (≈ 1.98 µM)
MIC Sa [2]: ≤0.5 µg/mL

CCc1ncc(Oc2nc(N3CC4C[C@@H](N)C4C3)c3c(n2)[nH]c2c(NC)cc(F)cc23)cn1 (some centres unmarked) [4.264]
MIC [1]: ≤ 0.5 µg/mL
MIC [2]: ≤ 0.5 µg/mL

CNc1cc(F)cc2c1[nH]c1nc(Oc3cnc4[nH]cnc4c3)nc(N3C[C@H](N)C4(CC4)C3)c12 [4.313]
MIC Ec [1]: >16 µg/mL
MIC Sa [2]: 8 µg/mL (≈ 17.4 µM)

CNc1cc(F)cc2c1[nH]c1nc(Oc3cnc(N4CCOCC4)nc3)nc(N3CCC(CN)C3)c12 (centres unmarked) [4.215]
MIC [1]: 4 µg/mL (≈ 8.1 µM)
MIC [2]: ≤ 0.5 µg/mL

CNc1cc(F)cc2c1[nH]c1nc(Oc3ccc4c(N)nc(C)nc4c3)nc(N3CC4C(N)C4C3)c12 (centres unmarked) [4.288]
MIC Ec [1]: >16 µg/mL
MIC Sa [2]: 4 µg/mL (≈ 8.24 µM)

CNc1cc(F)c(F)c2c1[nH]c1nc(Oc3cnc(CO)nc3)nc(N3C[C@H]4C[C@@H]3C[C@H]4N)c12 [5.14]
MIC [1]: ≤ 0.5 µg/mL
MIC [2]: ≤ 0.5 µg/mL

CNc1cc(F)cc2c1[nH]c1nc(Oc3cncnc3)nc(N3CC4CC3C4CN)c12 (centres unmarked) [4.030]
MIC Ec [1]: 16 µg/mL (≈ 38.1 µM)
MIC Sa [2]: 2 µg/mL (≈ 4.76 µM)

CNc1cc(F)cc2c1[nH]c1nc(Oc3ccc4oc(C)nc4c3)nc(N3C[C@H]4CC[C@@H](N)[C@H]4C3)c12 [4.336]
MIC [1]: 1 µg/mL (≈ 2.05 µM)
MIC [2]: ≤ 0.5 µg/mL

CNc1cccc2c1[nH]c1nc(Oc3cncc(F)c3)nc(N3C[C@@H](N)C4(CC4)C3)c12 [3.51]
MIC [1]: 32 µg/mL (≈ 76.3 µM)
MIC [2]: 8 µg/mL (≈ 19.1 µM)

CNc1cccc2c1[nH]c1nc(Oc3cncnc3)nc(N3CC4(CCNC4)C3)c12 [3.67]
MIC [1]: 64 µg/mL (≈ 159 µM)
MIC [2]: 16 µg/mL (≈ 39.8 µM)

CNc1cccc2c1[nH]c1nc(Sc3cncc(S(=O)(=O)NC)c3)nc(N3CC4C(N)C4C3)c12 (centres unmarked) [1.36]
MIC [1]: 4 µg/mL (≈ 8.05 µM)
MIC [2]: 2 µg/mL (≈ 4.03 µM)

CNc1cc(F)cc2c1[nH]c1nc(Oc3cncnc3)nc(N3CC[C@]4(C[C@@H]4N)C3)c12 [4.013]
MIC [1]: ≤ 0.5 µg/mL
MIC [2]: ≤ 0.5 µg/mL

CNc1cc(F)cc2c1[nH]c1nc(Oc3cncc(Cl)c3)nc(N3CC(N)C3)c12 [4.277]
MIC [1]: ≤ 0.5 µg/mL
MIC [2]: ≤ 0.5 µg/mL

CNc1cc(F)cc2c1[nH]c1nc(Oc3cnc(C)nc3)nc(N3CC4(CCCNC4)C3)c12 [4.149]
MIC Ec [1]: 2 µg/mL (≈ 4.46 µM)
MIC Sa [2]: ≤0.5 µg/mL

CNc1cc(F)cc2c1[nH]c1nc(Oc3cnc(C4CC4)nc3)nc(N3CCC(N)C3)c12 (centres unmarked) [4.243]
MIC Ec [1]: ≤0.5 µg/mL
MIC Sa [2]: ≤0.5 µg/mL

CNc1cc(F)cc2c1[nH]c1nc(Oc3cnc4cccnc4c3)nc(N3CC4C[C@@H](N)C[C@H]4C3)c12 (some centres unmarked) [4.046]
MIC [1]: 1 µg/mL (≈ 2.06 µM)
MIC [2]: ≤ 0.5 µg/mL

CNc1cc(F)cc2c1[nH]c1nc(Oc3cncnc3)nc(N3CC4CC4(N)C3)c12 (centres unmarked) [4.005]
MIC [1]: ≤ 0.5 µg/mL
MIC [2]: ≤ 0.5 µg/mL

CNc1ncnc2c1[nH]c1nc(Oc3cnc(C)nc3)nc(N3CCC(CN)C3)c12 (centres unmarked) [7.12]
MIC [1]: > 64 µg/mL
MIC [2]: > 64 µg/mL

CNc1cc(F)cc2c1[nH]c1nc(Oc3cncc(OC)c3)nc(N3C[C@H](N)C4(CC4)C3)c12 [4.165]
MIC [1]: 1 µg/mL (≈ 2.22 µM)
MIC [2]: ≤ 0.5 µg/mL

CNc1cc(F)cc2c1[nH]c1nc(Oc3cnc(C(N)=O)nc3)nc(N3C[C@H](N)C4(CC4)C3)c12 [4.375]
MIC [1]: 4 µg/mL (≈ 8.63 µM)
MIC [2]: ≤ 0.5 µg/mL

CNc1cccc2c1[nH]c1nc(Oc3cnc(OC)c(OC)c3)nc(N3CC[C@@H](N)C3)c12 [3.2]
MIC [1]: 16 µg/mL (≈ 36.7 µM)
MIC [2]: 4 µg/mL (≈ 9.19 µM)

CNc1cc(F)cc2c1[nH]c1nc(Oc3cnc(C(C)(C)O)nc3)nc(C3CC4(CC[C@H]4N)C3)c12 (some centres unmarked) [4.431]
MIC [1]: ≤ 0.5 µg/mL
MIC [2]: ≤ 0.5 µg/mL

CNc1cc(F)cc2c1[nH]c1nc(Oc3cncc(F)c3)nc(N3CC4CNC(C4)C3)c12 (centres unmarked) [4.058]
MIC [1]: ≤ 0.5 µg/mL
MIC [2]: ≤ 0.5 µg/mL

CNc1cc(F)cc2c1[nH]c1nc(Oc3cc(O)c4c(C)cc(=O)oc4c3)nc(N3CC4CC(N)C4C3)c12 (centres unmarked) [4.382]
MIC Ec [1]: 16 µg/mL (≈ 31 µM)
MIC Sa [2]: 1 µg/mL (≈ 1.94 µM)

NC1CN(c2nc(Sc3cnc4ccc[n+]([O-])c4c3)nc3[nH]c4c(NC5CC5)cc(F)cc4c23)CC12CC2 (centres unmarked) [1.2]
MIC [1]: > 64 µg/mL
MIC [2]: 32 µg/mL (≈ 60.5 µM)

CNc1cc(F)cc2c1[nH]c1nc(Oc3cnc4c(c3)C(=O)NC4)nc(N3CC4C[C@@H](N)C4C3)c12 (some centres unmarked) [4.357]
MIC [1]: 4 µg/mL (≈ 8.43 µM)
MIC [2]: ≤ 0.5 µg/mL

CNc1cccc2c1[nH]c1nc(Sc3cnc4cccnc4c3)nc(N3CCC4(CC4N)C3)c12 (centres unmarked) [1.25]
MIC Ec [1]: 4 µg/mL (≈ 8.54 µM)
MIC [2]: ≤ 0.5 µg/mL

CNc1cc(F)cc2c1[nH]c1nc(Oc3cnc(CCO)nc3)nc(N3CC4C[C@@H](N)C4C3)c12 (some centres unmarked) [4.415]
MIC [1]: 1 µg/mL (≈ 2.15 µM)
MIC [2]: ≤ 0.5 µg/mL
